In patent US20180050114A1, “HER2 APTAMER-ANTICANCER DRUG COMPLEX FOR CANCER CELL CHEMOTHERAPY” (priority 2016, published 2018):
{SH} = thiol (OH replaced by SH), used for disulfide linkage to DM1

What was measured:
[1] = tested on: HER2-positive breast cancer BT474 cell line and HER2-negative breast cancer T47D cell line, co-cultured 1:1; assay: p-His3 (mitotic arrest marker) ICC in co-cultured HER2-positive and HER2-negative cells; type: cell-based; details: for expression of p-His3 depending on HER2 expression (confocal images): BT474/T47D co-culture 1:1, 10 nM, 24 hr (FIG. 3)
Procedure: (2) HER2 and a mitotic arrest marker, namely phospho-Histone H3 (p-His3), were stained with ICC, and the HER2-positive breast cancer BT474 cell line and the HER2-negative breast cancer T47D cell line, the nuclei of which were stained with DAPI, were co-cultured at a ratio of 1:1 and treated with a control (DMSO), DM1, and Aptamer-DM1 at a concentration of 10 nM for 24 hr. Thereafter, the nuclei (blue), p-His3 (green), and HER2 (red) were imaged using a confocal microscope. The number of cells in which p-His3 was detected was quantified based on whether HER2 was expressed or not.

HER2 = molecular target: T1, HER2 (Homo sapiens, UniProt P04626); assay: Confocal ICC of HER2 localisation / cellular internalization in BT474 cells; type: cell-based; details: BT474 cell line, 10 nM, 48 hr, confocal microscope (FIGS. 2A to 2L)
T1 construct: endogenous in cells; host or cells: BT474 breast cancer cells
Procedure: (2) The cells cultured on 8-well chamber slides were fixed with 4% paraformaldehyde, washed with PBS, and cultured for 10 min with 0.2% Triton X-100. Thereafter, the cells were cultured overnight at 4° C. with primary antibodies in an antibody dilution buffer and then cultured at room temperature for 2 hr with fluorescence-conjugated secondary antibodies. Thereafter, the cells were mounted on ProLong Gold Antifade Reagent containing DAPI (4′,6′-diamidine-2′-phenylindole dihydrochloride). Particularly, each of the cultured breast cancer cell lines was subjected to immunocytochemistry (ICC) using a HER2 antibody, the nucleus thereof was stained with DAPI, and HER2 (red) and nucleus (blue) regions were imaged using a confocal microscope.
(1) ICC was performed using the HER2 antibody.

[2] = tested on: HER2-positive breast cancer cell lines (SKBR3, BT474, MDA-MB-453); assay: Apoptosis rate (sub-G1%) by PI DNA content flow cytometry, HER2-positive cell lines; type: cell-based; details: 10 nM, 72 hr (FIG. 5); for apoptosis rate (sub-G1%): HER2-positive cell lines SKBR3, BT474, MDA-MB-453
Procedure: (§1) Thereafter, the apoptosis rate (sub-G1%) of cancer cells was measured through DNA content analysis using flow cytometry.
(§2) (2) Typically, the cell cycle includes, depending on the amount of DNA in cells, G1 (cell growth phase)-S (cell replication phase)-G2/M (cell mitotic phase). […] The results of apoptosis are represented by the percentage of sub-G1 in the cell cycle.

[3] = tested on: HER2-negative breast cancer cell lines (MCF7, T47D); assay: Apoptosis rate (sub-G1%) by PI DNA content flow cytometry, HER2-negative cell lines; type: cell-based; details: 10 nM, 72 hr (FIG. 5)
Procedure: as §1, §2

JIMT-1 cell line = assay: Western blot of HER family / AKT signalling in JIMT-1 cells; type: cell-based; details: JIMT-1, 10 nM, 72 hr, compared to control, DM1 and Aptamer (FIG. 10)
[4] = tested on: HER2-positive BT474 tumors (compared with HER2-negative T47D tumors); assay: Breast cancer animal model, tumor volume and TUNEL assay; type: in vivo, BALB/c nude mice; details: 1 mg/kg, 2 mg/kg intraperitoneally three times a week
Procedure: (1) To the fourth breast fat pads of immunodeficient 6-week-old female BALB/c nude mice, HER2-positive BT474 cancer cells (3×10^6 cells) and HER2-negative T47D cancer cells (3×10^6 cells) were transplanted, after which Aptamer-DM1 (1 mg/kg, 2 mg/kg, body weight) was intraperitoneally administered three times a week. Then, the tumor volume was measured for 18 days. The tumor volume (V) was measured using a caliper and calculated according to V=(length×width^2)/2. In the TUNEL assay, the tumors were removed from the mice, fixed with 10% neutral-buffered formalin and embedded in paraffin. The 4 μm thick tissue section was mounted on a positively charged glass slide, deparaffinized with xylene, and […] through a graded alcohol series. After antigen retrieval, the above tissue section was boiled in a citric acid buffer (pH 6.0) and immunofluorescence was performed. In situ TUNEL was performed on the above tissue section using a TUNEL kit (Roche Applied Sciences, Penzberg, GER), and the images thereof were obtained using a confocal scanning microscope.

[5] = tested on: Trastuzumab-resistant BT474 cell line (BT474-Tra); assay: Western blot of HER family / AKT signalling in Trastuzumab-resistant BT474 cells; type: cell-based; details: 10 nM
Procedure: For the BT474 and BT474-Tra cell lines, the expression of p185HER2, p95HER2, p-HER2, p-p95HER2, HERS, p-HER3, total-AKT, p-AKT, and PARP was analyzed via Western blot. Cell viability was measured using a CellTiter 96* Aqueous One Solution Cell Proliferation Assay [MTS, 3-(4,5-dimethylthiazol-2-yl)-5-(3-carboxymethoxyphenyl)-2-(4-sulfophenyl)-2H-tetrazolium], and the amount of produced formazan was determined by measuring absorbance at 490 nm using a Spectramax Plus 384 microplate analyzer. In the Western blot, the above cells were lysed in a lysis buffer (30 mM NaCl, 0.5% Triton X-100, 50 mM Tris-HCl; pH 7.4) containing phosphatase and a protease inhibitor, and the supernatant was collected and then the protein was […] using a Bradford protein assay kit. 30 μg of the protein was subjected to SDS-PAGE and electrophoresed with a nitrocellulose membrane. The membrane was cultured overnight at 4° C. with primary antibodies diluted in bovine serum albumin (BSA) and then cultured with horseradish peroxidase (HRP)-conjugated rabbit IgG (1:3000-1:10,000). Signal intensity was measured using an Enhanced Chemiluminescence Kit and an X-ray film, and quantified with AlphaEaseFC software.

JIMT-1 cells = assay: Drug-resistant disease animal model, JIMT-1 tumors (tumor volume, bioluminescence imaging); type: in vivo, BALB/c nude mice
Procedure: (§3) Thereafter, the tumor volume was measured for 15 days. The results are shown in FIG. 11, and the results of in-vivo bioluminescence imaging of JIMT-1-transplanted mice are shown in FIG. 12. In-vivo bioluminescence imaging was performed in a manner in which the mice were anesthetized and administered with 150 mg/kg of luciferin, after which the tumor size and the transition state were measured using a bioluminescence imaging system.

BT474-Tra cells = assay: Drug-resistant disease animal model, BT474-Tra tumors; type: in vivo, BALB/c nude mice; details: BT474-Tra transplanted mice, 1 mg/kg intraperitoneally, 15 days (FIG. 11)
Procedure: as §3

[6] = BT474/T47D co-culture, 10 nM, 24 hr (FIG. 4)

Molecule | expression of p-His3 depending on HER2 expression (confocal images) [1] | proportions of cells in which p-His3 was detected, HER2-positive cell line versus HER2-negative cell line [1, 6] | HER2 localisation (cell membrane expression vs cellular internalization) (HER2) | apoptosis rate (sub-G1%) [2] | apoptosis rate (sub-G1%) [3] | expression of full-length p185HER2, phospho-HER2 (Tyr1221), HER3, phospho-HER3, AKT and phospho-Akt (Ser 43) (JIMT-1 cell line) | tumor growth (tumor volume) ([4]; 18 days, BT474 and T47D transplanted tumors (FIG. 6)) | apoptosis in tumors (TUNEL assay) ([4]; BT474 and T47D tumors (FIG. 7)) | expression of p95HER2 ([5]; BT474-Tra cells, 72 hr (FIG. 10)) | expression of full-length p185HER2, phospho-HER2 (Tyr1221), HER3, phospho-HER3, AKT and phospho-Akt (Ser 43) ([5]; BT474-Tra, 72 hr, compared to control, DM1 and Aptamer (FIG. 10)) | luciferin intensity (in-vivo bioluminescence imaging) (JIMT-1 cells; JIMT-1-transplanted mice, 1 mg/kg intraperitoneally (FIG. 12)) | tumor volume (JIMT-1 cells; JIMT-1 transplanted mice, 1 mg/kg intraperitoneally, 15 days (FIG. 11)) | proportion of cells in which p-His3 was detected, HER2-negative cell line [1, 6] | proportion of cells in which p-His3 was detected, HER2-positive cell line [1, 6] | apoptosis rate compared to the DM1-treated group ([2]; HER2-positive cell lines) | tumor volume (BT474-Tra cells)
COc1cc2cc(c1Cl)N(C)C(=O)C[C@H](OC(=O)[C@H](C)N(C)C(C)=O)[C@]1(C)O[C@H]1[C@H](C)[C@@H]1C[C@@](O)(NC(=O)O1)[C@H](OC)/C=C/C=C(\C)C2 [DM1, maytansine, reference compound] | found regardless of whether HER2 was expressed or not | not significantly different | expression of HER2 on the cell membrane was observed | relatively high apoptosis rate | relatively high apoptosis rate | – | – | – | – | – | – | – | – | – | – | –
Aptamer-DM1: HER2-binding RNA aptamer (SEQ ID NO:1, 3′ thiol, 2′-O-methyl) linked via disulfide bonding to anticancer drug DM1 (GGGAGGACGAUGCGGGACUGUACGGGGCUCUGUGCAGACGACUCGCCCGA; 3' {SH}, sugars by position and backbone not given here; 2'-O-methyl modified, 3' thiol disulfide-linked to DM1) | detected only in the cells in which HER2 was expressed | – | cellular internalization of HER2 from the cell membrane was observed | high | low | significantly reduced | significantly decreased only the growth of HER2-positive BT474 tumors | effectively induced apoptosis only in the HER2-positive BT474 tumors | strongly inhibited | significantly reduced | remarkably decreased | significantly reduced the tumor volume | considerably decreased | remarkably increased | high apoptosis rate in the HER2-positive cell lines compared to the DM1-treated group | significantly reduced the tumor volume
